# Measurements from the pKa sets of Baltruschat and Czodrowski (2020).
# Details: acidic group
row,SMILES,pKa
1,CC1(C)[C@H]2CC[C@@]1(C)[C@@H](O)[C@@H]2C(=O)O,2.74
2,O=C(O)[C@H]1C[C@@H]1c1cccc([N+](=O)[O-])c1,4.41
3,O=C1O[C@@H]([C@@H](O)CO)C(O)=C1O,4.16
4,Nc1n[nH]c(N)c1/N=N/c1ccc(C(=O)O)cc1,4.68
5,Cc1ccc(S(=O)(=O)Nc2ccccc2)cc1,8.46
6,O=C1C(=O)C(c2ccccc2)C1=O,0.37
7,O=[N+]([O-])c1ccc(C(=S)Nc2ccccc2)cc1,9.81
8,CCOC(=O)/C(=N/O)c1ccccc1,8.95
9,O=C1NCc2[nH]cnc2N1,11.5
10,Cc1cc(=O)n2ncnc2[nH]1,6.19
11,Oc1c(Cl)cc(Cl)cc1C[NH+]1CCCCC1,5.97
12,CN(O)C(=O)c1ccc([N+](=O)[O-])cc1,7.92
13,O=C([O-])CCCC(=O)NOCc1ccccc1,10.2
14,O=C(O)[C@H]1C[C@@H]1c1ccc([N+](=O)[O-])cc1,4.45
15,CCOC(=O)C(Cc1ccc(C)cc1)C(C)=O (centres undefined),11.9
16,O=[N+]([O-])c1ccc2cc(O)ccc2c1,7.69
17,O=C(O)[C@H]1C[C@@H]1c1cccc(Cl)c1,4.51
18,COc1ccc(O)c([N+](=O)[O-])c1,7.39
19,CC(C)=CCC1C(=O)C(C(=O)CC(C)C)C(=O)C(CC=C(C)C)(CC=C(C)C)C1=O (centres undefined),6.18
20,CC(=O)CC(=O)c1ccc[se]1,8.55
21,COc1cc(S(C)=O)ccc1-c1nc2nnccc2[nH]1 (centres undefined),8.71
22,CC(=O)c1cc(C(=O)C(C)(C)C)[nH]n1,9.7
23,CC(=O)N1CCc2noc(O)c2CC1,4.3

row,SMILES,pKa
1,[NH3+]CCc1nnn[nH]1,3.99
2,Oc1cc[nH+]c2cccnc12,2.85
3,O=C(O)CC1NC(=O)c2ccccc2O1 (centres undefined),4.9
4,[NH3+]c1ccc(O[C@H]2O[C@@H](C(=O)O)[C@H](O)[C@@H](O)[C@@H]2O)cc1,3.1
5,CCSC(O)O,11.5
6,O=C1C=C(O)C(=O)c2ccccc21,3.19
7,O=c1ccc2ccccc2cc1O,10
8,C[N+]1(CCCC(=O)O)CCCCC1,4.11
9,Cc1ccnc(NS(=O)(=O)c2ccc(Cl)cc2)n1,5.37
10,O=S(=O)(O)c1ccc(O)cc1,4.51
11,COC(=O)c1ccc(O)c([N+](=O)[O-])c1,5.4
12,CC(=O)[n+]1cccc(C)c1,5.81
13,Cc1cc(S(=O)(=O)Nc2nccs2)ccc1N,7
14,CC(=O)c1ccc(NN=C(C#N)C#N)cc1,5.85
15,CC(C)[C@H](C(=O)O)N1C[C@H](NC(=O)Cc2ccccc2)C1=O,3.48
16,Cc1ccc(NN=C(C#N)C#N)c([N+](=O)[O-])c1,6
17,N#CC(C#N)=NNc1ccccc1Br,6.35
18,Cc1ccc(/C=N/O)cc1,10.9
19,CCCC1(CCC)SC(=O)NC1=O,6.37
20,O/N=C/c1ccc(Cl)cc1,10.5
21,Sc1cc[nH+]c2ccccc12,0.77
22,O=C(O)/C=C/c1cccc([N+](=O)[O-])c1,4.08
23,C[C@H]([NH3+])C(=O)O,2.42

# Same assay, conditions: basic group
row,SMILES,pKa
1,CCNNC,7.5
2,NC(=S)c1ccccc1,-3.2
3,CN1CCC=C(C(=O)[O-])C1,9.07
4,CN1C[C@@H](C(=O)[O-])C[C@H]2c3cccc4[nH]cc(c34)C[C@@H]21,8.47
5,Nc1n[nH]c(N)c1/N=N/c1ccc(C(=O)O)cc1,3.4
6,COc1ccc2c3c1O[C@H]1C(=O)CC[C@H]4[C@@H](C2)N(C)CC[C@]314,7.67
7,CC1=C(CC(C)NCC(O)c2ccc(Cl)cc2)CCC1(C)C (centres undefined),8.55
8,CCc1cncc(C)c1,5.2
9,CCS(=O)(=O)c1cc(OC)c(OC)c(C(=O)N[C@@H]2C[C@H]3CC[C@@H](C2)N3Cc2ccccc2)c1,8.9
10,O=C(CCN1CCOCC1)c1cccc(Br)c1,6.8
11,C=CCC(C)(CN(CC)CC)OC(=O)c1ccccc1 (centres undefined),7.8
12,C[NH2+]CCN(C)CCN,9.68
13,N[C@H]1C[C@@H]2CCCC[C@H]2C[C@@H]1[NH3+],6.97
